{"source": "patent US20250303062A1", "about": "“Methods for controlling drug administration” (NUTROMICS […] LTD, priority 2022, published 2025)", "key": {"[1]": {"target": "DNA-aptamer for vancomycin", "test": "Titration curve of vancomycin EAB sensor by square-wave voltammetry, dissociation constant of the aptamer", "format": "binding", "experimental": "Each combination of electrode/matrix was electrochemically interrogated via square-wave voltammetry to obtain two set of data: • A frequency map, where the signal-on and signal-off frequencies were determined for a particular amplitude. • A titration curve, where the sensor is interrogated at several concentrations of vancomycin by using the optimal signal-on frequency (responsible for the sensing event).\nThe titration curve also allowed determination of the dissociation constant of the aptamer in the employed matrix.\n• Estart=between −0.5 and −0.4 V • Efinal=between −0.2 and −0.1 V • Eref=Ag|AgCl\n• fix A=optimal amplitude (25 mV for vancomycin-in-vitro) • scan f=optimal signal-on value (between 80 and 100 Hz) and signal-off value (lower than 15 Hz)\nReference is made to FIG. 13 showing response of a vancomycin sensitive microelectrode (d=340 μm) in (i) human serum and (artificial ISF including BSA, and globulin as described above). The following equation describes an isotherm that represents the response of the sensing layer to the presence of different concentrations of vancomycin.\nReference is made to FIG. 17, showing data comparing the use of two different mathematical approaches for obtaining KD, which generated consisting fitting."}, "[2]": {"test": "Human study: vancomycin in ISF by wearable EAB sensor vs serum", "format": "in vivo", "conditions": "healthy participants, single intravenous infusion 1 gram over 1 hour 40 minutes, ISF measured every 5 minutes", "experimental": "These human studies followed vancomycin levels using an EAB sensor (which may also be referred to as the “device”). The device was a self-contained wearable EAB sensor, constructed, having an on-board power supply, electrodes, and electronics, including a microprocessor and BlueTooth™ communications module.\nA vancomycin-sensitive EAB sensor was placed onto the participant's upper arm (see FIG. 20), opposite the arm where vancomycin was being infused. The time of device application was recorded. The device was applied 30 minutes (+15 minutes) prior to administering the vancomycin infusion and the device was removed up to 10 hours post-cessation of the infusion.\n30 minutes (+15 minutes) post-application of the device, the participant received a single dose of vancomycin as an intravenous infusion (1 gram over 1 hour 40 minutes). The time of administration and completion of infusion was recorded. […]\nSquare Wave Voltammetry (SWV) was used to interrogate the DNA-based sensor electrodes. […] Use the determined peak currents magnitudes obtained at two different SWV interrogation frequencies (in this case 50 Hz and 300 Hz), when no vancomycin is present and when it is present to calculate an analyte concentration responsive signal(S). • 4. […]"}}, "data": [{"smiles": "CN[C@H](CC(C)C)C(=O)N[C@H]1C(=O)N[C@@H](CC(N)=O)C(=O)N[C@H]2C(=O)N[C@H]3C(=O)N[C@H](C(=O)N[C@H](C(=O)O)c4cc(O)cc(O)c4-c4cc3ccc4O)[C@H](O)c3ccc(c(Cl)c3)Oc3cc2cc(c3O[C@@H]2O[C@H](CO)[C@@H](O)[C@H](O)[C@H]2O[C@H]2C[C@](C)(N)[C@H](O)[C@H](C)O2)Oc2ccc(cc2Cl)[C@H]1O", "note": "[vancomycin]", "values": [{"measurement": "KD", "setting": "[1]; human serum, smaller sensing area (microelectrode d=170 μm), two mathematical approaches", "result": "preserved"}, {"measurement": "KD (the dissociation constant of the DNA aptamer)", "setting": "[1]; microelectrode d=340 μm, synthetic interstitial fluid containing proteins compared with human serum", "result": "similar"}, {"measurement": "vancomycin in the ISF compartment (ISF vs blood)", "setting": "[2]", "result": "high variation"}]}]}
